Patent US8163737B2 (Vertex Pharmaceuticals Incorporated, priority 2006, dated 2012)
pIC50, pKi: −log10 of the molar value.

How the values were obtained:
[1] = target: T1, CGRP receptor (SK-N-MC membrane) (Homo sapiens, UniProt O60894+Q16602); assay: I125-CGRP binding displacement assay on purified SK-N-MC membrane
T1 construct: Purified SK-N-MC membrane was purchased from Perkin Elmer; purchased Perkin Elmer; host or cells: SK-N-MC membrane
Protocol: Purified SK-N-MC membrane was purchased from Perkin Elmer. The membrane was thawed quickly and placed on ice. The compounds were diluted with CGRP binding solution (25 mM Tris-HCl, pH7.4, 5 mM MgCl2, 0.1% BSA and 0.05% Tween). The membrane was diluted 1:20 with the binding solution and homogenized with Tissue Matster-50 Homogenizer (Omni International) for 30 sec. The homogenized membrane was added to compounds in the binding solution. […] After 2 hour incubation at room temperature, the reaction was stopped by rapid filtration through 0.5% PEI treated GF/C filter plate (Perkin Elmer) and the filter plate was washed with ice-cold washing solution (50 mM Tris HCl, pH7.4, 5 mM MgCl2 and 0.1% BSA) using cell harvestor (Tomtec). The radioactivity of the filter plates were read on Topcount (Packard). The nonspecific binding was determined in the control reaction where 1 uM unlabelled CGRP was preincubated with the membrane prior to I125-CGRP addition. The total binding was determined in the control reaction of the membrane and I125-CGRP in the absence of compound. The percent displacement of I125-CGRP with compounds was calculated using nonspecific and total binding controls. The curve fitting was carried out using MOD3.

endogenous CGRP receptor = endogenous CGRP receptor (Homo sapiens, UniProt O60894+Q16602); assay: CGRP functional antagonism using SK-N-MC-BLA (4C10), β-lactamase transcriptional reporter assay; type: cell-based; conditions: SK-N-MC (4C10) cells, inhibition of β-lactamase expression in the presence of 200 pM CGRP
endogenous CGRP receptor, sequence (Q16602 23-461): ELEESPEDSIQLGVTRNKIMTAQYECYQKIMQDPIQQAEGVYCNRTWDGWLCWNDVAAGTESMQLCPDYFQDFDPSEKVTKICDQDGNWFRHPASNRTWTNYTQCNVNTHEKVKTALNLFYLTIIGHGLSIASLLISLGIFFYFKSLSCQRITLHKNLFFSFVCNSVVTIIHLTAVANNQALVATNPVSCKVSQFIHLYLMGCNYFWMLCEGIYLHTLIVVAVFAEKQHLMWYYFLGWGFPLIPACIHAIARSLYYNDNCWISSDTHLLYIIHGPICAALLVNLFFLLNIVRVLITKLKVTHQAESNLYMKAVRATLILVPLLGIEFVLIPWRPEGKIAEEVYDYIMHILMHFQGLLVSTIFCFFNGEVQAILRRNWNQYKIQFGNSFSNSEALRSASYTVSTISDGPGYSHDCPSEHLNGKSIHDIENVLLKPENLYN
endogenous CGRP receptor, sequence (O60894 27-148): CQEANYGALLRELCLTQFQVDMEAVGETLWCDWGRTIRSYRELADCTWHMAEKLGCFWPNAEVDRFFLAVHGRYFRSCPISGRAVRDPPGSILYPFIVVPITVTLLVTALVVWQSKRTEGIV

T1 sequence (Q16602 23-461): as the sequence (Q16602 23-461) above
T1 sequence (O60894 27-148): as the sequence (O60894 27-148) above

| Structure (SMILES) | pKi [1] | pIC50 (endogenous CGRP receptor) |
| --- | --- | --- |
| CC(C)CCN1C(=O)C(CC(=O)N2CCC(n3c(=O)[nH]c4ccccc43)CC2)SC1c1ccccc1 (stereo not shown) [Compound 104] | < 5.30 | < 5.30 |
| CN1CCN(c2ccccc2[C@@H]2SC(CC(=O)N3CCCCC3)C(=O)N2CCC(C)(C)C)CC1 (stereo partly shown) [Compound 105] | < 5.30 | < 5.30 |
| CCCCN1C(=O)C(CC(=O)N2CCC(N3Cc4ccccc4NC3=O)CC2)SC1c1ccccc1 (stereo not shown) [Compound 107] | > 6.00 | > 6.00 |
| O=C(CC1SC(c2ccccc2)N(CC(F)(F)F)C1=O)N1CCC(N2Cc3ccccc3NC2=O)CC1 (stereo not shown) [Compound 109] | > 6.00 | 5.30 to 6.00 |
| CC(C)CCN1C(=O)C(CC(=O)N2CCC(n3cc(-c4ccccc4)[nH]c3=O)CC2)SC1c1ccccc1 (stereo not shown) [Compound 110] | < 5.30 | < 5.30 |
| O=C(CC1SC(c2ccccc2)N(CC2CCCO2)C1=O)N1CCC(N2Cc3ccccc3NC2=O)CC1 (stereo not shown) [Compound 113] | > 6.00 | > 6.00 |
| CC(C)(C)CCN1C(=O)C(CC(=O)N2CCC(N3Cc4ccccc4NC3=O)CC2)SC1c1ccccc1-n1cccn1 (stereo not shown) [Compound 115] | > 6.00 | > 6.00 |
| C#CCN1C(=O)C(CC(=O)N2CCC(N3Cc4ccccc4NC3=O)CC2)SC1c1ccccc1 (stereo not shown) [Compound 116] | > 6.00 | 5.30 to 6.00 |
| CC(C)CCN1C(=O)C(CC(=O)N2CCC(N3Cc4ccccc4NC3=O)CC2)[S+]([O-])C1c1ccccc1 (stereo not shown) [Compound 118] | > 6.00 | 5.30 to 6.00 |
| CC(C)CCN1C(=O)C(CC(=O)N2CCC(N3CCc4ccccc4NC3=O)CC2)SC1c1ccccc1N1CCC(O)CC1 (stereo not shown) [Compound 120] | > 6.00 | > 6.00 |
| CC(C)CCN1C(=O)C(CC(=O)N2CCC(N3Cc4ccccc4NC3=O)CC2)S(=O)(=O)C1c1ccccc1 (stereo not shown) [Compound 122] | > 6.00 | < 5.30 |
| CC(C)CCN1C(=O)C(CC(=O)N2CCC(n3cc(-c4ccccc4)[nH]c3=O)CC2)SC1c1ccc(F)c(F)c1 (stereo not shown) [Compound 127] | < 5.30 | 5.30 to 6.00 |
| O=C(CC1SC(c2ccccc2)N(CCc2ccccn2)C1=O)N1CCC(N2Cc3ccccc3NC2=O)CC1 (stereo not shown) [Compound 128] | > 6.00 | 5.30 to 6.00 |
| Cc1cc(C2SC(CC(=O)N3CCC(N4Cc5ccccc5NC4=O)CC3)C(=O)N2CC2CCCCC2)cc2cn[nH]c12 (stereo not shown) [Compound 145] | > 6.00 | > 6.00 |
| O=C(CC1SC(c2ccccc2)N(CC2CCCCC2)C1=O)N1CCC(N2CCc3ccccc3NC2=O)CC1 (stereo not shown) [Compound 147] | > 6.00 | > 6.00 |
| CC(C)CCN1C(=O)[C@H](CC(=O)N2CCC(N3Cc4ccccc4NC3=O)CC2)SC1c1ccccn1 (stereo partly shown) [Compound 148] | > 6.00 | 5.30 to 6.00 |
| CC(C)CCN1C(=O)C(CC(=O)N2CCC(N3CCc4ccccc4NC3=O)CC2)SC1c1ccccc1F (stereo not shown) [Compound 149] | > 6.00 | > 6.00 |
| CC(C)(C)CCN1C(=O)C(CC(=O)N2CCC(N3CCc4ccccc4NC3=O)CC2)SC1c1ccccc1N1CCC(O)CC1 (stereo not shown) [Compound 150] | > 6.00 | > 6.00 |
| CCOCCCN1C(=O)C(CC(=O)N2CCC(N3Cc4ccccc4NC3=O)CC2)SC1c1ccccc1 (stereo not shown) [Compound 159] | > 6.00 | > 6.00 |
| CC(C)(C)CCN1C(=O)C(CC(=O)N2CCC(N3Cc4ccccc4NC3=O)CC2)SC1c1ccccc1N1CCOCC1 (stereo not shown) [Compound 160] | > 6.00 | > 6.00 |
| CC(C)CCN1C(=O)C(CC(=O)N2CCC(N3Cc4ccccc4NC3=O)CC2)SC1c1cccc(OC(F)(F)F)c1 (stereo not shown) [Compound 169] | > 6.00 | 5.30 to 6.00 |
| CC(C)CCN1C(=O)C(CC(=O)N2CCC(N3Cc4ccccc4NC3=O)CC2)SC1c1ccccc1F (stereo not shown) [Compound 170] | > 6.00 | > 6.00 |
| Cc1ccccc1C1SC(CC(=O)N2CCC(N3CCc4ccccc4NC3=O)CC2)C(=O)N1CCC(C)C (stereo not shown) [Compound 171] | > 6.00 | > 6.00 |
| Cc1ccccc1C1SC(CC(=O)N2CCC(N3Cc4ccccc4NC3=O)CC2)C(=O)N1CCC(C)C (stereo not shown) [Compound 172] | > 6.00 | > 6.00 |

| Structure (SMILES) | pKi [1] | pIC50 (endogenous CGRP receptor) |
| --- | --- | --- |
| CC(C)CCN1C(=O)C(CC(=O)N2CCC(N3Cc4ccccc4NC3=O)CC2)SC12CCSCC2 (stereo not shown) [Compound 174] | > 6.00 | > 6.00 |
| N#Cc1ccccc1C1SC(CC(=O)N2CCC(N3CCc4ccccc4NC3=O)CC2)C(=O)N1CC1CCCCC1 (stereo not shown) [Compound 175] | > 6.00 | > 6.00 |
| CC(C)CCN1C(=O)[C@H](CC(=O)N2CCC(N3Cc4ccccc4NC3=O)CC2)SC1c1ccccn1 (stereo partly shown) [Compound 176] | > 6.00 | 5.30 to 6.00 |
| CC(C)CCN1C(=O)C(CC(=O)N2CCC(N3Cc4ccccc4NC3=O)CC2)SC1c1cccnc1 (stereo not shown) [Compound 182] | > 6.00 | > 6.00 |
| CC(C)CCN1C(=O)C(CC(=O)N2CCC(N3CCc4ccccc4NC3=O)CC2)SC1c1ccccc1-n1cccn1 (stereo not shown) [Compound 183] | > 6.00 | > 6.00 |
| O=C(CC1SC(c2ccccc2)N(c2ccccc2)C1=O)N1CCC(N2Cc3ccccc3NC2=O)CC1 (stereo not shown) [Compound 187] | > 6.00 | 5.30 to 6.00 |
| CC(C)CCN1C(=O)C(CC(=O)N2CCC(N3Cc4ccccc4NC3=O)CC2)SC1C1CCCC1 (stereo not shown) [Compound 188] | > 6.00 | > 6.00 |
| O=C(CC1SC(Cc2ccccc2)N(CC(F)(F)F)C1=O)N1CCC(N2Cc3ccccc3NC2=O)CC1 (stereo not shown) [Compound 190] | 5.30 to 6.00 | < 5.30 |
| CC(C)CCN1C(=O)C(CC(=O)N2CCC(N3CCc4ccccc4NC3=O)CC2)SC1c1c(F)cccc1C(F)(F)F (stereo not shown) [Compound 194] | > 6.00 | > 6.00 |
| CC(C)CCN1C(=O)C(CC(=O)N2CCC(n3cc(-c4ccccc4)[nH]c3=O)CC2)SC12CCCCC2 (stereo not shown) [Compound 195] | < 5.30 | 5.30 to 6.00 |
| CN(C)c1ccccc1C1SC(CC(=O)N2CCC(N3Cc4ccccc4NC3=O)CC2)C(=O)N1CCC(C)(C)C (stereo not shown) [Compound 198] | > 6.00 | > 6.00 |
| CC(C)CCN1C(=O)C(CC(=O)N2CCC(N3Cc4ccccc4NC3=O)CC2)SC1c1ccc(F)c(F)c1 (stereo not shown) [Compound 202] | > 6.00 | > 6.00 |
| CC(C)CCN1C(=O)C(CC(=O)N2CCC(N3Cc4ccccc4NC3=O)CC2)S(=O)(=O)C1c1ccc(F)cc1F (stereo not shown) [Compound 203] | > 6.00 | 5.30 to 6.00 |
| Cc1ccc(C2SC(CC(=O)N3CCC(N4Cc5ccccc5NC4=O)CC3)C(=O)N2CCC(C)C)cc1C (stereo not shown) [Compound 204] | 5.30 to 6.00 | 5.30 to 6.00 |
| O=C(CC1SC(c2ccccc2)N(Cc2ccc(F)cc2)C1=O)N1CCC(N2Cc3ccccc3NC2=O)CC1 (stereo not shown) [Compound 208] | > 6.00 | > 6.00 |
| CN(C)c1ccccc1C1SC(CC(=O)N2CCC(N3Cc4ccccc4NC3=O)CC2)C(=O)N1CCC(C)(C)C (stereo not shown) [Compound 211] | > 6.00 | 5.30 to 6.00 |
| CC(C)CCN1C(=O)C(CC(=O)N2CCC(N3Cc4ccccc4NC3=O)CC2)SC1c1ccc(F)cc1F (stereo not shown) [Compound 212] | > 6.00 | > 6.00 |
| COC(=O)[C@@H](CC(C)C)N1C(=O)C(CC(=O)N2CCC(N3CCc4ccccc4NC3=O)CC2)SC1c1ccccc1 (stereo partly shown) [Compound 225] | > 6.00 | > 6.00 |
| CC(C)CC1SC(CC(=O)N2CCC(N3Cc4ccccc4NC3=O)CC2)C(=O)N1CC(F)(F)F (stereo not shown) [Compound 226] | > 6.00 | 5.30 to 6.00 |
| CC(C)CCN1C(=O)C(CC(=O)N2CCC(N3Cc4ccccc4NC3=O)CC2)SC1c1ccccc1C#N (stereo not shown) [Compound 227] | > 6.00 | > 6.00 |
| O=C(CC1SC(c2ccccc2)N(C2CC2)C1=O)N1CCC(N2Cc3ccccc3NC2=O)CC1 (stereo not shown) [Compound 230] | 5.30 to 6.00 | < 5.30 |
| O=C(CC1SC(c2ccccc2)N(CCc2ccncc2)C1=O)N1CCC(N2Cc3ccccc3NC2=O)CC1 (stereo not shown) [Compound 236] | > 6.00 | 5.30 to 6.00 |
| CC(C)CCN1C(=O)C(CC(=O)N2CCC(n3cc(-c4ccccc4)[nH]c3=O)CC2)SC1c1ccc(F)cc1F (stereo not shown) [Compound 237] | < 5.30 | > 6.00 |
